# From the supplement of paper PMC10307832
# Compound: O=C(/C=C/c1cccnc1)NCCCCC1CCN(C(=O)c2ccccc2)CC1 [Daporinad] + CS(=O)(=O)N1CCN(Cc2cc3nc(-c4cccc5[nH]ncc45)nc(N4CCOCC4)c3s2)CC1 [Pictilisib] (partner 1 µM)
# Assay: relative viability (nuclei count vs DMSO), 5 days (fraction); higher = more cells survive
# Conditions: first compound 0.005 µM
# In short: (§1)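 Lung cancer cell lines in 1536-well plates were dosed by pin tool the day after seeding, either with one drug alone or with a fixed anchor-drug dose plus five library-drug doses (not always all listed) in √10 steps. After 5 days, cells were fixed and their nuclei stained in one step (final 0.05% Triton X-100, 1% formaldehyde, 1 ug/ml Hoechst), then counted on 4× images. Relative viability is the nuclei count in treated wells divided by that in vehicle wells. Values are medians of duplicate plates.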
row,Cell Line,relative viability
1,NCI-H358,0.338
2,NCI-H2170,0.301
3,H3255,0.507
4,COR-L23,0.721
5,COR-L 105,0.36
6,IA-LM,0.308
7,LOU-NH91,0.587
8,ChaGo-K-1,0.702
9,NCI-H1793,0.38
10,NCI-H2405,0.5
11,HOP-62,0.702
12,A549,0.61
13,SK-MES-1,0.345
14,NCI-H2009,0.938
15,NCI-H520,0.29
16,SW 1573,0.524
17,NCI-H1299,0.839
18,CAL-12T,0.442
19,NCI-H2228,0.495
20,NCI-H2023,0.245
21,NCI-H1563,0.605
22,SK-LU-1,0.637
23,NCI-H661,0.487

# Same assay, conditions: first compound 0.01581 µM
row,Cell Line,relative viability
1,NCI-H838,0.53
2,NCI-H1650,0.733
3,EBC-1,0.469
4,NCI-H1703,0.265
5,NCI-H1993,0.869
6,NCI-H441,0.507
7,PC-14,0.735
8,LCLC-103H,0.606
9,NCI-H596,0.448
10,NCI-H2126,0.486
11,EMC-BAC-2,0.319
12,NCI-H2085,0.554
13,Calu-6,0.421
14,HCC-366,0.201
15,NCI-H1666,0.494
16,NCI-H647,0.53
17,LK-2,0.354
18,NCI-H2087,0.907
19,NCI-H358,0.438
20,NCI-H2170,0.407
21,H3255,0.469

row,Cell Line,relative viability
1,COR-L23,0.368
2,COR-L 105,0.537
3,IA-LM,0.307
4,LOU-NH91,0.577
5,ChaGo-K-1,0.578
6,NCI-H1793,0.32
7,NCI-H2405,0.377
8,HOP-62,0.668
9,A549,0.469
10,SK-MES-1,0.306
11,NCI-H2009,0.661
12,NCI-H520,0.187
13,SW 1573,0.36
14,NCI-H1299,0.739
15,CAL-12T,0.494
16,NCI-H2228,0.464
17,NCI-H2023,0.278
18,NCI-H1563,0.701
19,SK-LU-1,0.595
20,NCI-H661,0.357

# Compound: O=C(/C=C/c1cccnc1)NCCCCC1CCN(C(=O)c2ccccc2)CC1 [Daporinad] + NC(=O)Nc1cc(-c2cccc(F)c2)sc1C(=O)N[C@H]1CCCNC1 [AZD7762] (partner 0.2 µM)
# Assay: as above
# Conditions: first compound 0.0005 µM
# In short: as §1
row,Cell Line,relative viability
1,NCI-H522,0.808
2,NCI-H2342,0.508
3,NCI-H838,1.02
4,NCI-H1703,0.134
5,NCI-H1993,0.645
6,NCI-H441,1.34
7,PC-14,0.22
8,LCLC-103H,0.829
9,NCI-H596,0.867
10,NCI-H2126,1.1
11,EMC-BAC-2,1.09
12,NCI-H2085,0.879
13,HCC-366,0.255
14,NCI-H1666,0.773
15,NCI-H647,0.428
16,LK-2,0.523
17,NCI-H2087,1.21
18,NCI-H358,0.473
19,NCI-H2170,0.807
20,H3255,0.869
21,LOU-NH91,0.761
22,ChaGo-K-1,0.834
23,NCI-H1793,0.467
24,NCI-H2405,0.786
25,HOP-62,0.406
26,SW 900,0.647
27,CAL-12T,0.553
28,NCI-H1648,0.649

# Same assay, conditions: first compound 0.001581 µM
row,Cell Line,relative viability
1,NCI-H522,1.13
2,NCI-H2342,0.457
3,NCI-H838,1.02
4,NCI-H1703,0.123
5,NCI-H1993,0.774
6,NCI-H441,1.34
7,PC-14,0.363
8,LCLC-103H,0.829
9,NCI-H596,1.09
10,NCI-H2126,0.976
11,EMC-BAC-2,1.28
12,NCI-H1666,0.874
13,NCI-H647,0.749
14,LK-2,0.36
15,NCI-H2087,1.41
16,NCI-H358,0.584
17,NCI-H2170,0.974
18,H3255,1.04
19,LOU-NH91,0.803
20,ChaGo-K-1,0.903
21,NCI-H1793,0.511
22,NCI-H2405,0.856
23,HOP-62,0.423
24,CAL-12T,0.528
25,NCI-H1648,0.577

# Same assay, conditions: first compound 0.005 µM
row,Cell Line,relative viability
1,NCI-H522,0.816
2,NCI-H2342,0.612
3,NCI-H838,0.894
4,NCI-H1703,0.155
5,NCI-H1993,0.787
6,NCI-H441,1.52
7,PC-14,0.362
8,LCLC-103H,0.773
9,NCI-H596,1.27
10,NCI-H2126,0.992
11,EMC-BAC-2,1.02
12,NCI-H2085,1.03
13,HCC-366,0.247
14,NCI-H1666,0.941
15,NCI-H647,0.573
16,LK-2,0.199
17,NCI-H2087,1.37
18,NCI-H358,0.506
19,NCI-H2170,0.979
20,H3255,1.03
21,LOU-NH91,0.905
22,ChaGo-K-1,0.755
23,NCI-H1793,0.522
24,NCI-H2405,0.792
25,HOP-62,0.665
26,SW 900,0.72
27,CAL-12T,0.609
28,NCI-H1648,0.674

# Same assay, conditions: first compound 0.01581 µM
row,Cell Line,relative viability
1,NCI-H522,0.538
2,NCI-H2342,0.532
3,NCI-H838,0.837
4,NCI-H1703,0.142
5,NCI-H1993,0.962
6,NCI-H441,1.25
7,PC-14,0.45
8,LCLC-103H,0.851
9,NCI-H596,1.03
10,NCI-H2126,1.04
11,EMC-BAC-2,0.413
12,NCI-H2085,1.1
13,HCC-366,0.268
14,NCI-H1666,0.851
15,NCI-H647,0.514
16,LK-2,0.141
17,NCI-H2087,1.17
18,NCI-H358,0.67
19,NCI-H2170,0.92
20,H3255,0.972
21,LOU-NH91,0.816
22,ChaGo-K-1,0.3
23,NCI-H1793,0.764
24,NCI-H2405,0.357
25,HOP-62,0.262
26,SW 900,0.654
27,CAL-12T,0.333
28,NCI-H1648,0.653

# Compound: O=C(/C=C/c1cccnc1)NCCCCC1CCN(C(=O)c2ccccc2)CC1 [Daporinad] + Nc1ncn([C@H]2C[C@H](O)[C@@H](CO)O2)c(=O)n1 [Decitabine] (partner 2 µM)
# Assay: as above
# Conditions: first compound 0.0005 µM
# In short: as §1
row,Cell Line,relative viability
1,NCI-H522,0.626
2,NCI-H2342,0.814
3,NCI-H838,0.44
4,NCI-H1650,0.402
5,NCI-H1993,0.576
6,NCI-H441,0.249
7,PC-14,0.189
8,LCLC-103H,0.793
9,NCI-H596,0.982
10,NCI-H2126,0.618
11,EMC-BAC-2,0.993
12,NCI-H2085,0.486
13,HCC-366,0.413
14,NCI-H1666,0.666
15,NCI-H647,0.37
16,LK-2,0.338
17,NCI-H2087,0.264
18,NCI-H358,0.215
19,NCI-H2170,0.491

row,Cell Line,relative viability
1,H3255,0.464
2,COR-L23,0.43
3,COR-L 105,0.692
4,LOU-NH91,0.824
5,ChaGo-K-1,0.534
6,NCI-H1793,0.45
7,NCI-H2405,0.796
8,HOP-62,0.176
9,A549,0.227
10,SK-MES-1,0.377
11,SW 900,0.438
12,NCI-H2009,0.356
13,NCI-H520,0.558
14,SW 1573,0.472
15,NCI-H2023,0.208
16,NCI-H1648,0.463
17,SK-LU-1,0.656
18,NCI-H661,0.615

# Same assay, conditions: first compound 0.001581 µM
row,Cell Line,relative viability
1,NCI-H522,0.689
2,NCI-H2342,0.58
3,NCI-H838,0.518
4,NCI-H1650,0.396
5,NCI-H1993,0.629
6,NCI-H441,0.204
7,PC-14,0.199
8,LCLC-103H,0.692
9,NCI-H596,1
10,NCI-H2126,0.524
11,EMC-BAC-2,1.05
12,NCI-H1666,0.712
13,NCI-H647,0.425
14,LK-2,0.323
15,NCI-H2087,0.317
16,NCI-H358,0.256
17,NCI-H2170,0.446

row,Cell Line,relative viability
1,H3255,0.605
2,COR-L23,0.471
3,COR-L 105,0.601
4,LOU-NH91,0.837
5,ChaGo-K-1,0.532
6,NCI-H1793,0.496
7,NCI-H2405,0.807
8,HOP-62,0.209
9,A549,0.252
10,SK-MES-1,0.374
11,NCI-H2009,0.395
12,NCI-H520,0.513
13,SW 1573,0.499
14,NCI-H2023,0.247
15,NCI-H1648,0.528
16,SK-LU-1,0.683
17,NCI-H661,0.625

# Same assay, conditions: first compound 0.005 µM
row,Cell Line,relative viability
1,NCI-H522,0.634
2,NCI-H2342,0.67
3,NCI-H838,0.358
4,NCI-H1650,0.458
5,NCI-H1993,0.602
6,NCI-H441,0.281
7,PC-14,0.23
8,LCLC-103H,0.744
9,NCI-H596,0.912
10,NCI-H2126,0.638
11,EMC-BAC-2,0.666
12,NCI-H2085,0.59
13,HCC-366,0.368
14,NCI-H1666,0.814
15,NCI-H647,0.448
16,LK-2,0.228
17,NCI-H2087,0.329
18,NCI-H358,0.233
19,NCI-H2170,0.444

row,Cell Line,relative viability
1,H3255,0.863
2,COR-L23,0.437
3,COR-L 105,0.612
4,LOU-NH91,0.877
5,ChaGo-K-1,0.355
6,NCI-H1793,0.489
7,NCI-H2405,0.751
8,HOP-62,0.208
9,A549,0.234
10,SK-MES-1,0.383
11,SW 900,0.403
12,NCI-H2009,0.381
13,NCI-H520,0.283
14,SW 1573,0.406
15,NCI-H2023,0.247
16,NCI-H1648,0.511
17,SK-LU-1,0.671
18,NCI-H661,0.416

# Same assay, conditions: first compound 0.01581 µM
row,Cell Line,relative viability
1,NCI-H522,0.628
2,NCI-H2342,0.72
3,NCI-H838,0.303
4,NCI-H1650,0.327
5,NCI-H1993,0.639
6,NCI-H441,0.237
7,PC-14,0.144
8,LCLC-103H,0.774
9,NCI-H596,0.636
10,NCI-H2126,0.584
11,EMC-BAC-2,0.464
12,NCI-H2085,0.573
13,HCC-366,0.321
14,NCI-H1666,0.718
15,NCI-H647,0.366
16,LK-2,0.13
17,NCI-H2087,0.277
18,NCI-H358,0.194
19,NCI-H2170,0.439

row,Cell Line,relative viability
1,H3255,0.816
2,COR-L23,0.227
3,COR-L 105,0.6
4,LOU-NH91,0.947
5,ChaGo-K-1,0.246
6,NCI-H1793,0.564
7,NCI-H2405,0.379
8,HOP-62,0.179
9,A549,0.161
10,SK-MES-1,0.375
11,SW 900,0.374
12,NCI-H2009,0.372
13,NCI-H520,0.18
14,SW 1573,0.197
15,NCI-H2023,0.232
16,NCI-H1648,0.44
17,SK-LU-1,0.692
18,NCI-H661,0.362
